{"source": "patent US9724380B2", "about": "“Method and compositions for synchronizing time of insemination in gilts” (JBS UNITED ANIMAL HEALTH II LLC, priority 2012, dated 2017)", "assay_type_in_all_cases": "in vivo, swine", "key": {"[1]": {"system": "gilts", "experiment": "Example 5: ovulation monitored by transrectal ultrasonography after 100, 200 or 400 mcg triptorelin gel intravaginally at 120 h after MATRIX withdrawal", "conditions": "for Percentage ovulated by 48 hours: blood-sampled subpopulation; for % of Sows Ovulating: raw average, PTK 2-07", "method": "(§1) All gilts were individually fed MATRIX® as a top-dress for 14 or 15 days at the recommended rate of 15 mg/gilt/day. Gilts were withdrawn from MATRIX® feeding (last top-dress in the morning on Day 0) and allocated to each of the following treatments. Controls were vehicle gel treated (vehicle gel without triptorelin) at 120 (+/−2) hours following MATRIX® withdrawal (last top dress). The other gilts were given 100, 200 or 400 mcg triptorelin as the acetate in a methylcellulose gel formulation 120 (+/−2) hours following MATRIX® withdrawal. The four treatments were: • 1. Vehicle gel (VG): vehicle gel without triptorelin at 120 (+/−2) hours after MATRIX® withdrawal. • 2. TG 100: 100 mcg (2 mL 50 mcg/mL) triptorelin gel at 120 (+/−2) hours after MATRIX® withdrawal. • 3. TG 200: 200 mcg (2 mL 100 mcg/mL) triptorelin gel at 120 (+/−2) hours after MATRIX® withdrawal. • 4. TG 400: 400 mcg (2 mL 200 mcg/mL) triptorelin gel at 120 (+/−2) hours after MATRIX® withdrawal.\n(§2) Triptorelin (pGlu-His-Trp-Ser-Tyr-D-Trp-Leu-Arg-Pro-Gly-NH2) was supplied in the acetate form, from Bachem, Torrance, Calif. (Item H-4075 CGMP grade). Triptorelin gel (100-400 mcg/2 mL dose) was formulated by Argenta (Auckland, NZ) in a gel composed of Methocel Premium A4000 (Dow Chemical), citrate buffer (pH 5.5), NaCl, methionine, and methyl and propyl parabens. Fifty-four milliliters of triptorelin gel (100 mcg triptorelin acetate/mL) was packaged in Amber Borosilicate Glass Serum Vials (610206-50) with a Gray Butyl Pharmaceutical Serum Vial Stopper (73828A-SS) with a Standard Aluminum Seal (SAS20NAT). […] MATRIX® was supplied as the US commercially available form.\nOvulation was monitored twice on Day 5 (8 hours and 16 hours post-treatment) and every 8 hours on Day 6 and Day 7 or until ovulation was confirmed or 176 hours following last MATRIX® feeding. The ovulatory status of all gilts was monitored by transrectal ultrasonography. An Aloka 500 ultrasound machine is used for this purpose, with a 7.5 MHz linear array transducer attached to a fixed-angle PVC stabilizing rod to facilitate insertion into the rectum. The transducer and PVC rod are coated with a gynecological lubricant and gently inserted into the rectum until the ovaries can be visualized, one at a time. The diameters of the three largest follicles were recorded (to the nearest 0.1 mm) at each scanning. A gilt was declared to have ovulated when the number of large follicles (≧6.5 mm) fell to less than 3.\n(§3) A single 2 mL dose of triptorelin gel or vehicle gel was deposited within approximately 1-2 cm posterior to the cervix with a catheter similar to those used for artificial insemination. The dose was delivered using a standard multi-dose applicator attached to the catheter. A new disposable sheath, which surrounds the catheter, was used for each gilt."}, "[2]": {"system": "gilts", "experiment": "Example 5: estrus observation after triptorelin gel dose groups", "conditions": "raw average, PTK 2-07", "method": "as §1, §2\nFor post-treatment estrus detection, gilts were housed in individual pens. Boars were housed in separate rooms, and/or at least 12 m away and downwind. To elicit signs of estrus, a mature boar was walked slowly in the alley in front of the gilts' crates, exposing each test gilt to visual, auditory and olfactory signals from the boar for up to 5 minutes. In keeping with standard practice at commercial farms, while the boar was near the front of the gilt's crate, estrus was tested by an experienced person applying back pressure to the midsection of the gilt combined with side rubbing. Estrus was confirmed when a gilt stood rigidly to the back pressure, with no vocalization and with some indication of an ear reflex. Gilts were not exposed to boars during the first three days after withdrawal of MATRIX® (Day 0 to Day 2). Estrus detection was performed daily on all gilts from Day 3 to Day 7.\nA single 2 mL dose of triptorelin gel or vehicle gel was deposited within approximately 1-2 cm posterior to the cervix with a catheter similar to those used for artificial insemination. The dose was delivered using a standard multi-dose applicator attached to the catheter. […]"}, "[3]": {"system": "serum LH", "experiment": "Example 5: serum LH surge after triptorelin gel (jugular catheter subpopulation)", "method": "as §1\nA catheter was inserted non-surgically into the jugular vein (Kraeling et al. 1982) of a subpopulation of gilts in each treatment group (vehicle gel, n=8; 100 mcg triptorelin, n=6; 200 mcg triptorelin, n=7 and 400 mcg triptorelin, n=6). Ten mL blood samples were collected every 15 minutes for one hour prior to treatment, immediately following treatment (0) and at 0.5, 1, 2, 4, 6, 12, 18, 24, 36 and 48 hours after treatment. Blood samples were maintained at 4° C. until centrifuged at 800×g for 15 minutes within 12 hours of collection. The resulting serum was stored frozen until assayed for LH using validated procedures for pig serum (Kesner et al., 1987 and Kraeling et al., 1982). Onset, duration, and magnitude of the LH surge were analyzed. The LH data were analyzed with the General Linear Models procedure of SAS. Differences between treatments were tested on least squares means estimates using the T test at P<0.05. Onset of the LH surge is when serum LH concentration is greater than or equal to two standard deviations of the mean of the pre-treatment serum LH concentrations. Duration of the LH surge is the period between onset and when serum LH concentration is again less than or equal to two standard deviations of the mean of the pre-treatment serum LH concentrations. Magnitude of the LH surge is the maximum serum LH concentration reached during the LH surge.\nas §3"}, "[4]": {"conditions": "200 mcg T, LS mean (1 gilt with surge)"}, "[5]": {"conditions": "200 mcg T, relative to time of triptorelin gel treatment, LS mean (1 gilt with surge)"}}, "data": [{"smiles": "CC(C)C[C@H](NC(=O)[C@@H](Cc1c[nH]c2ccccc12)NC(=O)[C@H](Cc1ccc(O)cc1)NC(=O)[C@H](CO)NC(=O)[C@H](Cc1c[nH]c2ccccc12)NC(=O)[C@H](Cc1c[nH]cn1)NC(=O)[C@@H]1CCC(=O)N1)C(=O)N[C@@H](CCCNC(=N)N)C(=O)N1CCC[C@H]1C(=O)NCC(N)=O", "note": "[T, pGlu-His-Trp-Ser-Tyr-D-Trp-Leu-Arg-Pro-Gly-NH2]", "values": [{"measurement": "Percentage ovulated by 48 hours", "setting": "[1]; 100 mcg T (n = 6)", "result": 100, "unit": "%"}, {"measurement": "% of Sows Ovulating", "setting": "[1]; 100 mcg T, 128 h post-MATRIX (8 h post-T)", "result": 0.0, "unit": "%"}, {"measurement": "% of Sows Ovulating", "setting": "[1]; 100 mcg T, 136 h post-MATRIX (16 h post-T)", "result": 5.0, "unit": "%"}, {"measurement": "% of Sows Ovulating", "setting": "[1]; 100 mcg T, 144 h post-MATRIX (24 h post-T)", "result": 20.0, "unit": "%"}, {"measurement": "% of Sows Ovulating", "setting": "[1]; 100 mcg T, 152 h post-MATRIX (32 h post-T)", "result": 30.0, "unit": "%"}, {"measurement": "% of Sows Ovulating", "setting": "[1]; 100 mcg T, 160 h post-MATRIX (40 h post-T)", "result": 60.0, "unit": "%"}, {"measurement": "% of Sows Ovulating", "setting": "[1]; 100 mcg T, 168 h post-MATRIX (48 h post-T)", "result": 95.0, "unit": "%"}, {"measurement": "% of Sows Ovulating", "setting": "[1]; 100 mcg T, 176 h post-MATRIX (56 h post-T)", "result": 100.0, "unit": "%"}, {"measurement": "Percentage ovulated by 48 hours", "setting": "[1]; 200 mcg T (n = 7)", "result": 100, "unit": "%"}, {"measurement": "% of Sows Ovulating", "setting": "[1]; 200 mcg T, 128 h post-MATRIX (8 h post-T)", "result": 0.0, "unit": "%"}, {"measurement": "% of Sows Ovulating", "setting": "[1]; 200 mcg T, 136 h post-MATRIX (16 h post-T)", "result": 0.0, "unit": "%"}, {"measurement": "Percentage ovulated by 48 hours", "setting": "[1]; 400 mcg T (n = 6)", "result": 100, "unit": "%"}, {"measurement": "% of Sows Ovulating", "setting": "[1]; 400 mcg T, 128 h post-MATRIX (8 h post-T)", "result": 4.5, "unit": "%"}, {"measurement": "% of Sows Ovulating", "setting": "[1]; 400 mcg T, 136 h post-MATRIX (16 h post-T)", "result": 9.1, "unit": "%"}, {"measurement": "% of Sows Ovulating", "setting": "[1]; 400 mcg T, 168 h post-MATRIX (48 h post-T)", "result": 100.0, "unit": "%"}, {"measurement": "% of Sows Ovulating", "setting": "[1]; 400 mcg T, 176 h post-MATRIX (56 h post-T)", "result": 100.0, "unit": "%"}, {"measurement": "Estrous Expression (%)", "setting": "[2]; 100 mcg T at 120 h post-MATRIX", "result": 75.0, "unit": "%"}, {"measurement": "Estrous Expression (%)", "setting": "[2]; 200 mcg T at 120 h post-MATRIX", "result": 81.0, "unit": "%"}, {"measurement": "Gilts, which displayed a LH surge (number)", "setting": "[3]; 100 mcg T (n = 6)", "result": 4}, {"measurement": "Magnitude of LH surge (maximum serum LH concentration)", "setting": "[3]; 100 mcg T, LS mean ± SE", "result": "3.94 ± 1.22"}, {"measurement": "Onset of LH surge", "setting": "[3]; 100 mcg T, relative to time of triptorelin gel treatment, LS mean ± SE", "result": "4 ± 3"}, {"measurement": "Gilts, which displayed a LH surge (number)", "setting": "[3]; 200 mcg T (n = 7)", "result": 1}, {"measurement": "Duration of LH surge", "setting": "[3]; [4]", "result": 18}, {"measurement": "Magnitude of LH surge (maximum serum LH concentration)", "setting": "[3]; [4]", "result": 8.98}, {"measurement": "Onset of LH surge", "setting": "[3]; [5]", "result": 0.5}, {"measurement": "Time of maximum LH conc.", "setting": "[3]; [5]", "result": 4}, {"measurement": "Gilts, which displayed a LH surge (number)", "setting": "[3]; 400 mcg T (n = 6)", "result": 5}, {"measurement": "Magnitude of LH surge (maximum serum LH concentration)", "setting": "[3]; 400 mcg T, LS mean ± SE", "result": "11.65 ± 12.35"}, {"measurement": "Onset of LH surge", "setting": "[3]; 400 mcg T, relative to time of triptorelin gel treatment, LS mean ± SE", "result": "4 ± 4"}]}]}
